The values that follow come from patent US10039836B2, “Polyamine-dihydroxybenzoic acid conjugate hydrogels as iron chelators” (THE UNIVERSITY OF KANSAS, priority 2010, dated 2018).

The subject of one data set is A549 cells. The experiment in a line: MTS cytotoxicity assay (CellTiter 96). The format is cell-based. To be noted: ~24 hours incubation. As to the method:
(§1) High throughput cell viability assays were completed using standard procedures. Cytotoxicity of polymers was determined by the CellTiter 96® Aqueous Cell Proliferation Assay (Promega). A549 and HUVEC cells were cultured and incubated with polymers for ˜24 hours. Next, the media was removed and replaced with a mixture of 100 μL fresh culture media and 20 μL MTS reagent solution and cells were incubated for 3 hours at 37° C. in a 5% CO2 incubator. The absorbance of each well was then measured at 490 nm using a microtiter plate reader (SpectraMax, M25, Molecular Devices Corp.) to determine relative cell viability.
Background: Tetrazolium assays rely on reduction of a dye to a coloured formazan, in cell work by metabolically active cells.

Another data set relates to HUVEC cells. Briefly: MTS cytotoxicity assay (CellTiter 96). The format is cell-based. The settings on record: ~24 hours incubation. As to the method:
as §1

For data set [1] the following is noted: cited from earlier work.

On to `CC(=O)N(O)CCCCCNC(=O)CCC(=O)N(O)CCCCCNC(=O)CCC(=O)N(O)CCCCCN` [DFO, desferoxamine], for which the “toxic effect on A549 cells” value in the data set with A549 cells is given as “no toxic effect”. Also, the “toxic effect on HUVEC cells” value in the data set on HUVEC cells is “considerably toxic even at concentration as low as 10 μg/mL”.

With `O=C(N[C@H]1COC(=O)[C@@H](NC(=O)c2cccc(O)c2O)COC(=O)[C@@H](NC(=O)c2cccc(O)c2O)COC1=O)c1cccc(O)c1O` [Enterobactin], the “relative iron binding constant” value in data set [1] (Fe(III)) is on record as 35.5. Further, the “Log K” value in data set [1] (iron) is 52.
